Source: patent publication US11160837B2, “Megamonas funiformis and applications thereof” (BGI SHENZHEN, priority 2017, dated 2021)

Tested on: AF24-28AC
Assay: Antibiotic sensitivity of AF24-28AC by the drug sensitive paper method
Assay type: cell-based, Megamonas funiformis
Conditions: for Resistance / sensitivity of AF24-28AC to the antibiotic: drug sensitive paper method, result in words
Experimental: The sensitivity of AF24-28AC to 20 common antibiotics was tested by the drug sensitive paper method. 100 μl of AF24-28AC bacterial solution cultured to the logarithmic phase was spread plated. Antibiotic susceptibility papers (purchased from Hangzhou Microbial Reagent Co. LTD.) were affixed on the medium surface of plates, cultured at 37° C. for 48 hours, after which the size of inhibition zone was measured.

CN(C)[C@@H]1C(=O)C(C(N)=O)=C(O)[C@@]2(O)C(=O)C3=C(O)c4c(O)cccc4[C@@](C)(O)[C@H]3C[C@@H]12 [Acheomycin]
Diameter of inhibition zone (antibiotic susceptibility papers on plates spread with AF24-28AC, 37° C., 48 hours): 4.2 cm

CCN1CCN(C(=O)N[C@@H](C(=O)N[C@@H]2C(=O)N3C(C(=O)O)=C(CSc4nnnn4C)CS[C@H]23)c2ccc(O)cc2)C(=O)C1=O [Cefoperazone]
Resistance / sensitivity of AF24-28AC to the antibiotic: resistant

Cc1onc(-c2ccccc2)c1C(=O)N[C@@H]1C(=O)N2[C@@H]1SC(C)(C)[C@@H]2C(=O)O [Oxacillin]
Resistance / sensitivity of AF24-28AC to the antibiotic: resistant

Penicillin
Resistance / sensitivity of AF24-28AC to the antibiotic: resistant
